This is an account of results in ChEMBL document CHEMBL4725275, “Structural basis for the stabilization of amyloidogenic immunoglobulin light chains by hydantoins” (Bioorg Med Chem Lett, 2020).

Each structure is given as a SMILES string. Converted amounts (≈) assume the structure as drawn. The source made the active and inactive calls. No cut-off for these calls is given here.

The species named for series [1] is Homo sapiens. The series is described as follows: Kinetic stabilization of AL patient derived recombinant full length IGLV6-57 C214S mutant assessed as induction of dimer formation at 100 uM by sedimentation velocity analytical ultracentrifugation.
The target in series [2] is Immunoglobulin lambda variable 6-57 (Homo sapiens) (UniProt P01721). The series is described as follows: Binding affinity to AL patient derived full length IGLV6-57 assessed as protection against proteinase K-mediated digestion by measuring fraction remaining at 100 uM measured after 2 hrs by analytical size-exclusion chromatography. (SEC sorts molecules by how far they enter the pores of the column.)
Chain of Immunoglobulin lambda variable 6-57 (Homo sapiens) (P01721 whole entry): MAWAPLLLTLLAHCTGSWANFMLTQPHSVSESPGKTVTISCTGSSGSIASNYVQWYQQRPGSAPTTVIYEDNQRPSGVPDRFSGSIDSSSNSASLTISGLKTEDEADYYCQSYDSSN

Series [3] can be described thus: Solubility of the compound. The class given is physicochemical.

In the case of `CCN(CC)c1ccc2c(C)cc(=O)oc2c1`, the outcome in series [1] was Active.
As for `CC(C)C[C@@H]1NC(=O)N(CC(=O)Nc2ccc(C(F)(F)F)cc2)C1=O`, in series [2], the outcome was Active.
`CC1CCCCC12NC(=O)N(CC(=O)Nc1ccc(C(F)(F)F)cc1)C2=O` (stereo not given) yielded a solubility in series [3] of 100 µM (≈ 38.3 µg/mL). In addition, in series [1], the result was Active.
In the case of `CC(C)C[C@H]1NC(=O)N(CC(=O)Nc2ccc(C(F)(F)F)cc2)C1=O`, in series [2], the result was Active.

As usually defined, the solubility is how much of the substance goes into solution per volume. A low value points to a poorly soluble substance.
